Results on twelve compounds are retold here after ChEMBL document CHEMBL1133910, “N-hydroxyformamide peptidomimetics as TACE/matrix metalloprotease inhibitors: oral activity via P1' isobutyl substitution” (Bioorg Med Chem Lett, 2001).

The source made the active and inactive calls. The calls are words filed in the database; no cut-off is given here.

The target of series [1] is Matrix metalloproteinase-9 (Homo sapiens, UniProt P14780). In words: Inhibition of Matrix metalloprotease-9.
The target of a further series is T1, Interstitial collagenase (Homo sapiens, UniProt P03956).
T1 sequence (P03956 whole entry): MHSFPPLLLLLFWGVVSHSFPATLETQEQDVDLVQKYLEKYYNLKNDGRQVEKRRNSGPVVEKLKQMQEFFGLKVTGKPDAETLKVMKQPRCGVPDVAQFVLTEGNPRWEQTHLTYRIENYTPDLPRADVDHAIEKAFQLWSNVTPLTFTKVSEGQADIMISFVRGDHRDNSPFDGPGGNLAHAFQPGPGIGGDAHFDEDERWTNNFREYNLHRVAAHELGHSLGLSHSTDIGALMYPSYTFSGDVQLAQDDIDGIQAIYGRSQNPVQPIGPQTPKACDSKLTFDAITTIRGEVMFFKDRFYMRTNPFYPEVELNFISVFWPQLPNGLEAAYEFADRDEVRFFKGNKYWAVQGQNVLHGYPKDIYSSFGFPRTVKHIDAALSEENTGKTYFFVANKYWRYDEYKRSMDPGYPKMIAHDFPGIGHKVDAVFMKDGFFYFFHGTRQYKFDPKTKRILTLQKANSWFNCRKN
In words: Inhibition of Matrix metalloprotease-1.

For series [2], the target named is T2, Stromelysin-1 (Homo sapiens, UniProt P08254). The series can be described thus: Inhibition of Matrix metalloprotease-3.
T2 sequence (P08254 whole entry): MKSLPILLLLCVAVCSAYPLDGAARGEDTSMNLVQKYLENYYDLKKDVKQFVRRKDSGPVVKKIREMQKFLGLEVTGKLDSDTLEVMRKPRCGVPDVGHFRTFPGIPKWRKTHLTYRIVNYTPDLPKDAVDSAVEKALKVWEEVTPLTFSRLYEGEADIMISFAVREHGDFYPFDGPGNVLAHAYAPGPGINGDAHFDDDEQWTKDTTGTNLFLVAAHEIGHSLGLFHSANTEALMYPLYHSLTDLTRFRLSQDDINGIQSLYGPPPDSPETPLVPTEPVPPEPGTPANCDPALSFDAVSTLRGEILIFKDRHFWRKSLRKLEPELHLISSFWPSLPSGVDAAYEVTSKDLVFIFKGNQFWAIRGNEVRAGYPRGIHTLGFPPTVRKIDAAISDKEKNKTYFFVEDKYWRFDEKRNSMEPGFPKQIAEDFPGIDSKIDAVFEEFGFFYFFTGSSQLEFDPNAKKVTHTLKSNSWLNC
Series [3] can be described thus: Compound was evaluated for inhibition of cellular release of TNF-alpha from MonoMac-6 cells. Particulars: Homo sapiens, MONO-MAC-6. Type of series: functional, cell-based.
Series [4] deals with T3, Disintegrin and metalloproteinase domain-containing protein 17 (Homo sapiens, UniProt P78536). In words: Inhibition of TNF-alpha converting enzyme (TACE).
T3 sequence (P78536 whole entry, the tested form may be a part): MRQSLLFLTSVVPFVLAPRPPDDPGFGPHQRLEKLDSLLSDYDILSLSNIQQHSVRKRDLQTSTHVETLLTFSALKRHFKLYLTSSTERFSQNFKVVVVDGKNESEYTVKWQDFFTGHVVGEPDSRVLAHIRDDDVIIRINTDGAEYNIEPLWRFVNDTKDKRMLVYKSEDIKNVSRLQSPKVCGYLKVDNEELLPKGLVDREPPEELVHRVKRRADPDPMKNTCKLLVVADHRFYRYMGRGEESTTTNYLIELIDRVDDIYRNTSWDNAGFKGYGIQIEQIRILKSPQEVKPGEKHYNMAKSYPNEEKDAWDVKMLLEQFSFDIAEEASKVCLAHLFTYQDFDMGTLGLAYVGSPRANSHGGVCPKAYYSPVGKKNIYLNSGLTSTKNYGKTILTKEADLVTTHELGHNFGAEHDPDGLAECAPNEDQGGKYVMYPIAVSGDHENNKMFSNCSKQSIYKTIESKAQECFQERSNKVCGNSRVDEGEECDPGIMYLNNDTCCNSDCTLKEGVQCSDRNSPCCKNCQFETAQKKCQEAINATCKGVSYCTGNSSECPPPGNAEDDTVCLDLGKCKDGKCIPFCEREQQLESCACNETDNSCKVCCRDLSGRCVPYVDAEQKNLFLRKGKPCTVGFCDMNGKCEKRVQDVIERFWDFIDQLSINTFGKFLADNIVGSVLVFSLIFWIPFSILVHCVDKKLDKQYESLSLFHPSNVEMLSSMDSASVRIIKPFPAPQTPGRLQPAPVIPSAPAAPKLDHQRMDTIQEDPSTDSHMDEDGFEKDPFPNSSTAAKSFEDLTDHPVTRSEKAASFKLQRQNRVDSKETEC
The test system of series [5] is Mus musculus. In words: In vivo inhibition of Murine Lipopolysaccharide induced plasma TNF on peroral administration of the compound; IA means Inactive. Type of series: functional, organism-based.
Series [6] addresses T2, Stromelysin-1. In words: Inhibition of matrix metalloprotease-3 (MMP3).
Series [7] has as its system Mus musculus. The series can be described thus: In vivo inhibition of Murine Lipopolysaccharide induced plasma TNF on peroral administration of the compound. Type of series: functional. More on the design: concentration or dose not given beside the values.
Series [8] addresses T3, Disintegrin and metalloproteinase domain-containing protein 17. In words: Inhibition of Tumor necrosis factor alpha converting enzyme.
The test system of series [9] is Mus musculus. In words: In vivo inhibition of Murine Lipopolysaccharide induced plasma TNF on peroral administration of the compound; IA means inactive. It counts as functional, organism-based.
The nature of series [10]: Area under curve was determined for the compound by intravenous administration of 1.2 mg/kg in dog. It counts as ADME, organism-based, Canis lupus familiaris. More on the design: dose 1.2 mg/kg, route intravenous. Particulars: in vivo.
A short description of series [11]: Half life by intravenous administration of 1.2 mg/kg in dog. It counts as ADME, organism-based, Canis lupus familiaris. More on the design: dose 1.2 mg/kg, route intravenous. The following applies: in vivo.
A short description of series [12]: Clearance by intravenous administration of 3.4 mg/kg in rat. It counts as ADME, organism-based. More on the design: dose 3.4 mg/kg, route intravenous. Particulars: in vivo.
The nature of series [13]: Clearance by intravenous administration of 1.2 mg/kg in dog. It counts as ADME, organism-based, Canis lupus familiaris. More on the design: dose 1.2 mg/kg, route intravenous. The following applies: in vivo.
Series [14] is described as follows: Bioavailability by intravenous administration of 3.4 mg/kg in rat. Type of series: ADME, organism-based. The following applies: in vivo.
Series [15] is described as follows: Maximum concentration by intravenous administration of 3.4 mg/kg in rat. Type of series: ADME, organism-based. More on the design: dose 3.4 mg/kg, route intravenous. Particulars: in vivo.
The nature of series [16]: Bioavailability by intravenous administration of 1.2 mg/kg in dog. Type of series: ADME, organism-based, Canis lupus familiaris. The following applies: in vivo.
Series [17] in a line: Maximum concentration by intravenous administration of 1.2 mg/kg in dog. Type of series: ADME, organism-based, Canis lupus familiaris. More on the design: dose 1.2 mg/kg, route intravenous. Particulars: in vivo.
A short description of series [18]: Area under curve was determined for the compound by intravenous administration of 3.4 mg/kg in rat. It counts as ADME, organism-based. More on the design: dose 3.4 mg/kg, route intravenous. Particulars: in vivo.
Series [19] can be described thus: Half life by intravenous administration of 3.4 mg/kg in rat. It counts as ADME, organism-based. More on the design: dose 3.4 mg/kg, route intravenous. Particulars: in vivo.
Series [20] concerns Mus musculus. In words: Percent inhibition of Murine Lipopolysaccharide induced plasma TNF on peroral administration of the compound. It counts as functional.

Chain of Matrix metalloproteinase-9 (P14780 whole entry): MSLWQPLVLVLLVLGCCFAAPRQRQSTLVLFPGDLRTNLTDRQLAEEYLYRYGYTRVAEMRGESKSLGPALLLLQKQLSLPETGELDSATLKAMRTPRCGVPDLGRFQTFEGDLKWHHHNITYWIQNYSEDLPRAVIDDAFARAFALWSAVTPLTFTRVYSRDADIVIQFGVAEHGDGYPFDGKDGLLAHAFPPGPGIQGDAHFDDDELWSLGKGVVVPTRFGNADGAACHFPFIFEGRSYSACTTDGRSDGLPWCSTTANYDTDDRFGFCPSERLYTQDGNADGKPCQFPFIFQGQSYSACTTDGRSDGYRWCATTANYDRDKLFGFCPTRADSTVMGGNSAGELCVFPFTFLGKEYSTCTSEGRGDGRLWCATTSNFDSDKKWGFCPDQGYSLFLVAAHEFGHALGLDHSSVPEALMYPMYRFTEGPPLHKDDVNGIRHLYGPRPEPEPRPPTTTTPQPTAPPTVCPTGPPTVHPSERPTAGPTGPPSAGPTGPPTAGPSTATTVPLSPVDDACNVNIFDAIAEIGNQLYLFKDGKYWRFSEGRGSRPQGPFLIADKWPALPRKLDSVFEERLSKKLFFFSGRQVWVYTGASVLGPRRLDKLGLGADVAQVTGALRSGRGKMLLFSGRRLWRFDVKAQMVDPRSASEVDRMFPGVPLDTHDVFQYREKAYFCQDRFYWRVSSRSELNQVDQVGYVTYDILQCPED

`CNC(=O)[C@@H](NC(=O)[C@@H](CC(=O)NO)CC(C)C)C(C)(C)C` [RO-319790]: the Ki in series [1] is 2 nM; at Interstitial collagenase, 2 nM; on Stromelysin-1 [2] it was 310 nM; in series [4], 87 nM. In series [3], this compound gave a half-maximal inhibitory concentration (IC50) of 5720 nM. For the same compound, in the series on Mus musculus [5], the inhibition result is “inactive”.
Consider `CCC(C)[C@H](NC(=O)[C@H](CC(C)C)[C@H](CC)N(O)C=O)C(=O)Nc1ccccn1` (stereo not given in full), for which the Ki in series [1] is 73 nM; at Interstitial collagenase, 55 nM; on Stromelysin-1 [6] it was 38 nM; in series [8] it was 31 nM. This compound also had an IC50 in series [3] of 1410 nM. This compound gave an Inhibition with Mus musculus [7] of 62%.
On to `CC(C)C[C@@H](C(=O)N[C@H](C(=O)Nc1nccs1)C(C)C)[C@H](C)N(O)C=O`, for which the Ki in series [1] turned out to be 17 nM; on Interstitial collagenase, 36 nM; on Stromelysin-1 [2] it was 120 nM; in series [8] it was 27 nM. The half-maximal inhibitory concentration (IC50) in series [3] is 681 nM. This compound came in with an Inhibition in the series on Mus musculus [7] of 61%.
On to `CC[C@H](C)C(NC(=O)[C@H](CC(C)C)[C@H](C)N(O)C=O)C(=O)Nc1nccs1` (single isomer, unassigned), for which the Ki in series [1] is 29 nM; at Interstitial collagenase, 41 nM; at Stromelysin-1 [2] it was 93 nM; in series [8] it was 20 nM. In [3], this compound gave an IC50 of 270 nM. The compound also showed an Inhibition with Mus musculus [7] of 48%.
As for `CNC(=O)[C@@H](NC(=O)[C@H](CC(C)C)[C@H](C)N(O)C=O)C(C)(C)C`, the Ki in series [1] worked out at 21 nM; on Interstitial collagenase it was 17 nM; on Stromelysin-1 [2], 2320 nM; in series [8], 142 nM. This compound showed an IC50 in [3] of 2950 nM.
In the case of `CC(C)C[C@@H](C(=O)N[C@@H](CC(C)(C)C)C(=O)Nc1nccs1)[C@H](C)N(O)C=O`, the Ki in [1] was 98 nM; on Interstitial collagenase, 170 nM; at Stromelysin-1 [2], 354 nM; in series [8], 64 nM. In addition, the IC50 in [3] was 3960 nM. The inhibition result in the series on Mus musculus [9] was “inactive”.
Turning to `CC(C)C[C@@H](C(=O)N[C@H](C(N)=O)C(C)(C)C)[C@H](C)N(O)C=O`, the Ki in series [1] was determined as 33 nM; at Interstitial collagenase, 181 nM; at Stromelysin-1 [2], 406 nM; in series [8], 156 nM. Also, half-maximal inhibition in series [3] (IC50) required 3070 nM.
For `CC(C)C[C@@H](C(=O)N[C@H](C(=O)Nc1nccs1)C(C)(C)C)[C@H](C)N(O)C=O`, the AUC in [10] amounted to 2100 ng·h/mL; in [18], 957 ng·h/mL. For the same compound, the half-life is 2.8 h in series [11] and 3.4 h in series [19]. The figures for the clearance in [12] and in [13] were 62 mL/min/kg and 10 mL/min/kg, respectively. For the same compound, the bioavailability in series [14] came out at 26%; in series [16], 44%. Besides, the figures for the Cmax in series [15] and in [17] were 2330 ng/mL and 4530 ng/mL, respectively. For the same compound, the Ki in series [1] was 34 nM; at Interstitial collagenase, 27 nM; at Stromelysin-1 [2], 437 nM; in series [8] it was 20 nM. Inhibition in [3] was half-maximal at 245 nM (IC50). This compound came in with an Inhibition with Mus musculus [20] of 60%.
Turning to `CC[C@@H]([C@@H](CC(C)C)C(=O)N[C@H](C(=O)Nc1nccs1)C(C)(C)C)N(O)C=O`, the Ki is 28 nM in [1], 16 nM at Interstitial collagenase, 135 nM on Stromelysin-1 [6] and 16 nM in [8]. The compound further had an IC50 in series [3] of 200 nM. Also, in the series with Mus musculus [7], the Inhibition is given as 52%.
For `CC(C)C[C@H](NC(=O)[C@H](CC(C)C)[C@H](C)N(O)C=O)C(=O)Nc1nccs1`, the Ki in [1] came out at 17 nM; at Interstitial collagenase, 97 nM; at Stromelysin-1 [2], 80 nM; in [8], 55 nM. This compound showed an IC50 in series [3] of 1690 nM. In addition, the inhibition entry in the series on Mus musculus [9] was “inactive”.
In the case of `CC[C@@H]([C@@H](CC(C)C)C(=O)N[C@H](C(=O)Nc1ccccn1)C(C)(C)C)N(O)C=O`, the Ki in series [1] was determined as 89 nM; at Interstitial collagenase it was 47 nM; on Stromelysin-1 [6] it was 153 nM; in series [8], 29 nM. The IC50 in series [3] came out at 304 nM. For the same compound, the Inhibition in the series with Mus musculus [7] is reported as 61%.
For the compound `CC[C@H](C)[C@H](NC(=O)[C@H](CC(C)C)[C@H](CC)N(O)C=O)C(=O)Nc1nccs1`, the Ki turned out to be 24 nM in series [1], 42 nM at Interstitial collagenase, 45 nM at Stromelysin-1 [6] and 11 nM in series [8]. The same compound had an IC50 in [3] of 92 nM. In addition, the Inhibition in the series with Mus musculus [7] worked out at 48%.
